The values below come from US20090036448A1, “PYRIMIDINE DERIVATIVES AND METHODS OF TREATMENT RELATED TO THE USE THEREOF” (TAISHO PHARMECUTICAL CO., LTD., priority 2004, published 2009).

MCH receptor, sequence (Q99705 whole entry): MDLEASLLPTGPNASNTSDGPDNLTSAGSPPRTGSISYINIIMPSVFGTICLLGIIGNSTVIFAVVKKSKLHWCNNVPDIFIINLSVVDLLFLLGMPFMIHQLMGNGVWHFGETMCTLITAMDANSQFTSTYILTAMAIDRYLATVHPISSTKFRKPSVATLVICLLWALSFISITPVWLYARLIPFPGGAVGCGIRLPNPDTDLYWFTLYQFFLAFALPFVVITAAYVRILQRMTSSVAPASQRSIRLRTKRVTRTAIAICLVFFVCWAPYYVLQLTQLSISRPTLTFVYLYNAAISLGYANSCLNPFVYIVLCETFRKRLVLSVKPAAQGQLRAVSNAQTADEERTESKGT

The target of this assay is MCH receptor (Homo sapiens, UniProt Q99705). The experiment in a line: Receptor binding assay with Radiolabelled MCH Ligand. As to conditions: class by percent of control at 10^-7 M or IC50. Also noted: expressed in transfected cells; host or cells: 293 cells (human kidney, ATCC), transient transfection; crude membranes. The essentials:
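This was a filtration radioligand displacement assay: compounds, first tested at 1 and 0.1 μM and then over a range, inhibited binding of a labelled MCH ligand to transfected 293-cell membranes at room temperature for 60–120 min. Specific binding excluded a cold-MCH nonspecific signal. Ki was derived from IC50 via Cheng-Prusoff, using an independently measured KD.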
For `Cc1nc(N[C@H]2CC[C@@H](NC(=O)c3ccc(N(C)C)cc3)CC2)cc(N(C)C)n1` [compound 217], the class was 3 (Class 3: The value of percent of control at 10^−7 M was more than 60% or the value of IC50 was more than 200 nM.). Then `Cc1nc(N[C@H]2CC[C@@H](NS(=O)(=O)c3ccc(S(C)(=O)=O)cc3)CC2)cc(N(C)C)n1` [compound 498], with 3 (Class 3: The value of percent of control at 10^−7 M was more than 60% or the value of IC50 was more than 200 nM.). Under `Cc1nc(N[C@H]2CC[C@@H](NC(=O)c3ccc(S(C)(=O)=O)cc3)CC2)cc(N(C)C)n1` [compound 343] stands 3 (Class 3: The value of percent of control at 10^−7 M was more than 60% or the value of IC50 was more than 200 nM.); under `Cc1ccc(S(=O)(=O)NCC(=O)N[C@H]2CC[C@@H](Nc3cc(N(C)C)nc(C)n3)CC2)cc1` [compound 317], 3 (Class 3: The value of percent of control at 10^−7 M was more than 60% or the value of IC50 was more than 200 nM.); under `CCOc1ccc(C(=O)N[C@H]2CC[C@@H](Nc3cc(N(C)C)nc(C)n3)CC2)cc1` [compound 220], 3 (Class 3: The value of percent of control at 10^−7 M was more than 60% or the value of IC50 was more than 200 nM.). Turning to `Cc1nc(N[C@H]2CC[C@@H](NC(=O)c3snnc3C)CC2)cc(N(C)C)n1` [compound 229], the class is listed as 3 (Class 3: The value of percent of control at 10^−7 M was more than 60% or the value of IC50 was more than 200 nM.). For `Cc1cc(C)c(C(=O)C(=O)N[C@H]2CC[C@@H](Nc3cc(N(C)C)nc(C)n3)CC2)c(C)c1` [compound 350], the class is recorded as 3 (Class 3: The value of percent of control at 10^−7 M was more than 60% or the value of IC50 was more than 200 nM.). Under `Cc1nc(N[C@H]2CC[C@@H](NC(=O)c3ccc(S(C)(=O)=O)s3)CC2)cc(N(C)C)n1` [compound 346] stands 3 (Class 3: The value of percent of control at 10^−7 M was more than 60% or the value of IC50 was more than 200 nM.); under `CCCCOc1ccc(S(=O)(=O)N[C@H]2CC[C@@H](Nc3cc(N(C)C)nc(C)n3)CC2)cc1` [compound 494], 3 (Class 3: The value of percent of control at 10^−7 M was more than 60% or the value of IC50 was more than 200 nM.); under `COC(=O)[C@H](Cc1ccccc1)NC(=O)N[C@H]1CC[C@@H](Nc2cc(N(C)C)nc(C)n2)CC1` (relative stereo) [compound 411], 3 (Class 3: The value of percent of control at 10^−7 M was more than 60% or the value of IC50 was more than 200 nM.). Consider `Cc1nc(N[C@H]2CC[C@@H](NC(=O)[C@@H]3CCCN3S(=O)(=O)c3ccc(C(C)(C)C)cc3)CC2)cc(N(C)C)n1` (relative stereo) [compound 277], for which the class is given as 3 (Class 3: The value of percent of control at 10^−7 M was more than 60% or the value of IC50 was more than 200 nM.). In the case of `Cc1nc(N[C@H]2CC[C@@H](NC(=O)Nc3c(Cl)cc(Cl)cc3Cl)CC2)cc(N(C)C)n1` [compound 430], the class is 3 (Class 3: The value of percent of control at 10^−7 M was more than 60% or the value of IC50 was more than 200 nM.).

As to `COc1ccc(OC)c(NC(=O)Cc2ccccc2C(=O)N[C@H]2CC[C@@H](Nc3cc(N(C)C)nc(C)n3)CC2)c1` [compound 295], the class is 3 (Class 3: The value of percent of control at 10^−7 M was more than 60% or the value of IC50 was more than 200 nM.).

With `Cc1nc(N[C@H]2CC[C@@H](NC(=O)COc3cccc4c(C)cc(=O)oc34)CC2)cc(N(C)C)n1` [compound 273], the class is given as 3 (Class 3: The value of percent of control at 10^−7 M was more than 60% or the value of IC50 was more than 200 nM.). Then `Cc1nc(N[C@H]2CC[C@@H](NCc3ccc(F)c(F)c3)CC2)cc(N(C)C)n1` [compound 369], with 3 (Class 3: The value of percent of control at 10^−7 M was more than 60% or the value of IC50 was more than 200 nM.); and `Cc1nc(N[C@H]2CC[C@@H](NC(=O)c3ccc4cc5ccccc5cc4c3)CC2)cc(N(C)C)n1` [compound 333], with 3 (Class 3: The value of percent of control at 10^−7 M was more than 60% or the value of IC50 was more than 200 nM.).

Turning to `Cc1nc(N[C@H]2CC[C@@H](NC(=O)Cc3ccc(F)cc3)CC2)cc(N(C)C)n1` [compound 250], the class is reported as 3 (Class 3: The value of percent of control at 10^−7 M was more than 60% or the value of IC50 was more than 200 nM.). Then `Cc1nc(N[C@H]2CC[C@@H](NC(=O)/C=C/c3ccccc3)CC2)cc(N(C)C)n1` [compound 210], with 3 (Class 3: The value of percent of control at 10^−7 M was more than 60% or the value of IC50 was more than 200 nM.). Under `Cc1nc(N[C@H]2CC[C@@H](NC(=O)Cc3sc(-c4ccccc4)nc3-c3ccc(Cl)cc3)CC2)cc(N(C)C)n1` [compound 335] stands 3 (Class 3: The value of percent of control at 10^−7 M was more than 60% or the value of IC50 was more than 200 nM.).

Take `Cc1nc(N[C@H]2CC[C@@H](NC(=O)C3CCCCC3)CC2)cc(N(C)C)n1` [compound 212]: the class is on record as 3 (Class 3: The value of percent of control at 10^−7 M was more than 60% or the value of IC50 was more than 200 nM.). Then `Cc1nc(N[C@H]2CC[C@@H](NC(=O)c3ccc4nonc4c3)CC2)cc(N(C)C)n1` [compound 207, N-(cis-4-{[6-(dimethylamino)-2-methylpyrimidin-4-y]amino}cyclohexyl)-2,1,3-benzoxadiazole-5-carboxamide], with 3 (Class 3: The value of percent of control at 10^−7 M was more than 60% or the value of IC50 was more than 200 nM.); and `CCCCCc1ccc(C(=O)N[C@H]2CC[C@@H](Nc3cc(N(C)C)nc(C)n3)CC2)cc1` [compound 252], with 3 (Class 3: The value of percent of control at 10^−7 M was more than 60% or the value of IC50 was more than 200 nM.); and `CCSC(C(=O)N[C@H]1CC[C@@H](Nc2cc(N(C)C)nc(C)n2)CC1)(c1ccccc1)c1ccccc1` [compound 306, N-(cis-4-{[6-(dimethylamino)-2-methylpyrimidin-4-yl]amino}cyclohexyl)-2-(ethylthio)-2,2-diphenylacetamide], with 1 (Class 1: The value of percent of control at 10^−7 M was less than 40% or the value of IC50 was less than 50 nM.). Then `Cc1nc(N[C@H]2CC[C@@H](NC(=O)OCc3ccccc3Cl)CC2)cc(N(C)C)n1` [compound 468], with 3 (Class 3: The value of percent of control at 10^−7 M was more than 60% or the value of IC50 was more than 200 nM.).

`CC(=O)c1ccc(OCC(=O)N[C@H]2CC[C@@H](Nc3cc(N(C)C)nc(C)n3)CC2)cc1` [compound 275]: the class is reported as 3 (Class 3: The value of percent of control at 10^−7 M was more than 60% or the value of IC50 was more than 200 nM.).

`Cc1nc(N[C@H]2CC[C@@H](NCCc3ccc(F)cc3)CC2)cc(N(C)C)n1` [compound 395]: the class is recorded as 3 (Class 3: The value of percent of control at 10^−7 M was more than 60% or the value of IC50 was more than 200 nM.). Under `Cc1nc(N[C@H]2CC[C@@H](NS(=O)(=O)c3cc(Cl)c(Oc4ccc([N+](=O)[O-])cc4Cl)c(Cl)c3)CC2)cc(N(C)C)n1` [compound 495] stands 3 (Class 3: The value of percent of control at 10^−7 M was more than 60% or the value of IC50 was more than 200 nM.); under `Cc1nc(N[C@H]2CC[C@@H](NCc3ccc(C(C)(C)C)cc3)CC2)cc(N(C)C)n1` [compound 356], 3 (Class 3: The value of percent of control at 10^−7 M was more than 60% or the value of IC50 was more than 200 nM.); under `Cc1nc(N[C@H]2CC[C@@H](NS(=O)(=O)c3ccc(Cc4ncc(C(F)(F)F)cc4Cl)s3)CC2)cc(N(C)C)n1` [compound 510], 3 (Class 3: The value of percent of control at 10^−7 M was more than 60% or the value of IC50 was more than 200 nM.). Under `CCC(C)(C)c1ccc(S(=O)(=O)N[C@H]2CC[C@@H](Nc3cc(N(C)C)nc(C)n3)CC2)cc1` [compound 488] stands 3 (Class 3: The value of percent of control at 10^−7 M was more than 60% or the value of IC50 was more than 200 nM.); under `Cc1nc(N[C@H]2CC[C@@H](NC(=O)CC3CCCC3)CC2)cc(N(C)C)n1` [compound 257], 3 (Class 3: The value of percent of control at 10^−7 M was more than 60% or the value of IC50 was more than 200 nM.); under `Cc1nc(N[C@H]2CC[C@@H](NS(=O)(=O)CCc3cccc4ccccc34)CC2)cc(N(C)C)n1` [compound 477], 3 (Class 3: The value of percent of control at 10^−7 M was more than 60% or the value of IC50 was more than 200 nM.). Under `COc1ccc(NC(=S)N[C@H]2CC[C@@H](Nc3cc(N(C)C)nc(C)n3)CC2)cc1OC` [compound 445] stands 3 (Class 3: The value of percent of control at 10^−7 M was more than 60% or the value of IC50 was more than 200 nM.). For `Cc1nc(N[C@H]2CC[C@@H](NC(=O)c3ccc(C(C)(C)C)cc3)CC2)cc(N(C)C)n1` [compound 202], the class is listed as 3 (Class 3: The value of percent of control at 10^−7 M was more than 60% or the value of IC50 was more than 200 nM.). Take `Cc1nc(N[C@H]2CC[C@@H](NC(=O)OC3C[C@H](C)CC[C@H]3C(C)C)CC2)cc(N(C)C)n1` (stereo partly shown) [compound 465]: the class is 3 (Class 3: The value of percent of control at 10^−7 M was more than 60% or the value of IC50 was more than 200 nM.).

Consider `Cc1nc(N[C@H]2CC[C@@H](NC(=O)C(C(=O)OCc3ccccc3)c3ccccc3)CC2)cc(N(C)C)n1` (relative stereo) [compound 321], for which the class is reported as 3 (Class 3: The value of percent of control at 10^−7 M was more than 60% or the value of IC50 was more than 200 nM.).

On to `Cc1nc(N[C@H]2CC[C@@H](NC(=O)c3nn(-c4ccccc4)nc3C)CC2)cc(N(C)C)n1` [compound 228], for which the class is 3 (Class 3: The value of percent of control at 10^−7 M was more than 60% or the value of IC50 was more than 200 nM.).
